Measured values taken from patent US20090311348A1, “PHARMECEUTICAL AND COSMETIC USE OF SILICA” (priority 2006, published 2009).
Entries after “also recorded” stand apart in the source; their conditions may differ.

How the values were obtained:
Format in all cases: cell-based
[1] = tested on: Involucrin; assay: Induction of differentiation marker involucrin in human epidermal keratinocytes (real time RT-PCR); conditions: NHEK, several concentrations
Protocol: (§1) Silica mud precipitate was obtained from a natural source (Blue Lagoon geothermal basin, Svartsengi, Iceland). Sodium metasilicate was obtained from Prof. Dr. G. Lehmann, Biochemistry, Regensburg University. As control a ceramide mix (10 μM) was used to induce the differentiation markers.
(§2) Long term cultured normal human epidermal keratinocytes, NHEK, prepared from neonatal foreskin are cultured in Keratinocyte SFM (Invitrogen™, Heidelberg, Germany) supplemented with bovine pituitary extract (Invitrogen, Heidelberg, Germany) and recombinant epidermal growth factor (Invitrogen, Heidelberg, Germany). Cells are propagated up to passage 2 or 3 at 37° C. and 5% CO2. For induction of differentiation NHEKs are seeded in 6-well plates and grown up to confluence and treated with several concentrations of the silica preparates.
(§3) Total RNA was isolated using RNeasy Total RNA Kits (Qiagen, Hilden, Germany). The RNA concentration was determined via photometric measurement at 260/280 (Biophotometer, Eppendorf AG, Hamburg, Germany). An aliquot of 10 ng RNA was used for cDNA synthesis. […]
(§4) PCR reactions were carried out on an opticon 1 (MJ Research, Waltham, Mass., USA) using SYBR Green® PCR Master Mix (Applied Biosystems, Darmstadt, Germany). Each sample was analyzed in double employing the universal protocol over 36 cycles. […]

[2] = tested on: Loricrin; assay: Induction of differentiation marker loricrin in human epidermal keratinocytes (real time RT-PCR); conditions: NHEK, several concentrations
Protocol: as §1, §2, §3, §4

[3] = tested on: Filaggrin; assay: Induction of differentiation marker filaggrin in human epidermal keratinocytes (real time RT-PCR); conditions: NHEK, several concentrations
Protocol: as §1, §2, §3, §4

[4] = tested on: collagen 1A1; assay: Collagen 1A1 gene expression in human dermal fibroblasts; conditions: real time RT-PCR
Excerpt: Human dermal fibroblasts, HDF, prepared from neonatal foreskin and cultured for 4 days until they reached confluence as described in Example 3.

[5] = tested on: transglutaminase-1; assay: Induction of differentiation marker transglutaminase-1 in human epidermal keratinocytes (real time RT-PCR); conditions: NHEK, several concentrations
Protocol: as §1, §2, §3, §4

In the case of O=[Si]([O-])[O-].[Na+].[Na+] [sodium metasilicate], the expression of involucrin [1] was “substantial up-regulation; also recorded: induced”, the expression of loricrin [2] was “induced” and the expression of filaggrin [3] was “substantial up-regulation; also recorded: induced; also recorded: stronger than with silica mud”. For the same molecule, the “collagen 1A1 gene expression” value [4] was “did not show any increase” and the “expression of transglutaminase-1” value [5] was “substantial up-regulation; also recorded: induced”.
